Holding throughout (assay type): cell-based, mouse
One assay concerns sortilin. Nature of the assay: Western blot for sortilin expression in treated 3T3L1 cells. As to conditions: 500 nM, added day 3 of differentiation, maintained to day 8; whole cell lysate. The protocol:
(§1) 2-(3,5-Dioxo-4-azatricyclo[5.2.1.0˜2,6˜]dec-8-en-4-yl)-4-methylpentanoic acid and 4-[(3,4-dichlorophenyl)amino]-3-(3-methylbenzyl)-4-oxobutanoic acid were used to treat 3T3L1 cells at 500 nM concentration on day 3 of differentiation and maintained in culture up to day 8 when the cells mature into adipocytes with well-developed lipid bodies. Whole cell lysate was isolated and western blot analysis was performed using anti-sortilin antibody. […] To determine the compounds effect sortilin gene expression, 3T3L1 cells were treated as above and total RNA was isolated. RT-PCR was performed using sortilin primers.
A general note: A western blot detects proteins with antibodies after separation by electrophoresis.

The next assay relates to sortilin mRNA. Nature of the assay: RT-PCR for sortilin mRNA in treated 3T3L1 cells. As to conditions: 500 nM, added day 3 of differentiation, maintained to day 8; total RNA. Here is the method:
as §1

The subject of the next assay is 3T3L1 cells. The experiment in a line: [3-H]-deoxy-2-D-Glucose uptake in 3T3L1 adipocytes. The following applies: 500 nM; for glucose uptake: added day 3 of differentiation, maintained to day 8, without insulin; for glucose uptake with addition of insulin: day 3 to day 8, 100 nM insulin for 30 minutes. The protocol:
To examine glucose uptake, 3T3L1 cells were treated on day 3 of differentiation with either 2-(3,5-dioxo-4-azatricyclo[5.2.1.0(2,6)]dec-8-en-4-yl)-4-methylpentanoic acid or 4-[(3,4-dichlorophenyl)amino]-3-(3-methylbenzyl)-4-oxobutanoic acid at 500 nM concentration and maintained in culture up to day 8 when the cells mature into adipocytes with well-developed lipid bodies. After 100 nM insulin was added to cells and maintained for 30 minutes, [3-H]-deoxy-2-D-Glucose uptake was measured.

SMILES strings stand for the structures.

For `CC(C)CC(C(=O)O)N1C(=O)C2C3C=CC(C3)C2C1=O` (centres unmarked) [2-(3,5-dioxo-4-azatricyclo[5.2.1.0(2,6)]dec-8-en-4-yl)-4-methylpentanoic acid], in the assay with sortilin, the “sortilin expression (western blot, anti-sortilin antibody)” value is given as “increase in sortilin expression”. Further, the “mRNA levels of sortilin (RT-PCR)” value in the assay with sortilin mRNA is “not affected”. In the assay on 3T3L1 cells, the glucose uptake result was “increase in glucose uptake” and the “glucose uptake with addition of insulin” value is on record as “further increased”.
The corresponding values for `Cc1cccc(CC(CC(=O)O)C(=O)Nc2ccc(Cl)c(Cl)c2)c1` (centres unmarked) [4-[(3,4-dichlorophenyl)amino]-3-(3-methylbenzyl)-4-oxobutanoic acid] are “increase in sortilin expression”, “not affected”, “increase in glucose uptake” and “further increased”.

The values above are taken from patent publication US10849896B2, “Sortilin-binding small molecules for increasing glucose uptake” (University of South Florida, priority 2015, dated 2020).
